Assays:
[1] = system: Kentucky bluegrass; assay: Turf grass selectivity, greenhouse pot test; format: in vivo, Poa pratensis
From the text: (§1) Turf mats of Zoysia grass, bentgrass, Kentucky bluegrass, or perennial rye grass known as cool season turfgrass or western grass were purchased and cut into a piece having 10 cm×20 cm size. Then, each piece was transplanted in a rectangular plastic pot (surface area of 300 cm^2) in which sandy loam and mixed top soil (Boo-Nong Top Soil No. 3, for horticultural use) are filled in 1:1 ratio. After the transplantation, the grasses were cut once a week to maintain the blade height at 0.5-1.0 cm and cultivated for one month in a green house of which temperature was kept at 25˜30° C. for daytime and 15˜25° C. for nighttime, respectively. Then, the ‘test chemical’ of the above Examples 1 and 2 or ‘control chemical’ was applied thereto in an amount of 400, 200, 100, 50, 25, 12, 6, 3 g ai/ha. As a “control chemical”, pyrazolsulfuron ethyl wettable agent (manufactured by Dongbu Fine Chemicals; herein after, referred to as ‘control chemical No. 1’) and flazasulfuron (manufactured by Dongbu HiTek; herein after, referred to as ‘control chemical No. 2’), both sulfonylurea herbicides for a turf grass, were used. Application was carried out by using a track sprayer (R&D Sprayer, USA) equipped with Teejet 8002 nozzle (Spraying Systems Co., USA), and the application amount was adjusted to 2,000 L/ha, which is a typical application amount for a golf course in Korea. Application solution was prepared by diluting the “test chemical” or the “control chemical” with tap water. […] The test was repeated three times in a random arrangement and the results are given in average value of each test (see Table 2 below).

[2] = system: Kyllinga brevifolia; assay: Actual field condition test of Example 1 (golf course); format: in vivo; settings: for efficacy in actual field condition: Kyllinga brevifolia (growth period), twenty days after application
Protocol: (§2) The test chemical of the Example 1 was applied to a turf grass field, in which Digitaria sanguinalis as a representative summer-time poaceae weed and Kyllinga brevifolia as a representative hard-to-control perennial cyperaceae weed are thriving predominantly, to evaluate weed control effect of the compound. The experiment was carried out from May to July, 2008 in the Dae-duk Research Park golf course (Doryong-dong, Yusong-gu, Daejon, South Korea). At the time of the chemical application, Digitaria sanguinalis was at about 4-leaf stage and Kyllinga brevifolia was at growth period.

[3] = system: Zoysia japonica; assay: as above; format: in vivo; settings: twenty days after application
Protocol: as §2

[4] = system: Digitaria sanguinalis; assay: as above; format: in vivo; settings: for efficacy in actual field condition: Digitaria sanguinalis (about 4-leaf stage), twenty days after application
Protocol: as §2

[5] = system: Kentucky bluegrass; assay: as above; format: in vivo, Poa pratensis; settings: twenty days after application
Protocol: as §2

[6] = system: every kind of turf grasses tested; assay: Turf grass selectivity, text summary over all turf grasses; format: in vivo
From the text: as §1

[7] = system: Perennial rye grass; assay: Turf grass selectivity, greenhouse pot test; format: in vivo
From the text: as §1

[8] = system: Zoysia japonica; assay: Turf grass selectivity, greenhouse pot test; format: in vivo; settings: Zoysia japonica
From the text: as §1

Cc1cc(C)nc(NC(=O)NS(=O)(=O)c2ccccc2C(O)C(C)F)n1 (stereo not drawn) [Example 1]
phytotoxicity (visual assessment 0-10) ([1]; 3 g ai/ha, 2 weeks): 0
phytotoxicity (visual assessment 0-10) ([1]; 3 g ai/ha, 4 weeks): 0
phytotoxicity (visual assessment 0-10) ([1]; 6 g ai/ha, 2 weeks): 0
phytotoxicity (visual assessment 0-10) ([1]; 6 g ai/ha, 4 weeks): 0
phytotoxicity (visual assessment 0-10) ([1]; 12 g ai/ha, 2 weeks): 0
phytotoxicity (visual assessment 0-10) ([1]; 12 g ai/ha, 4 weeks): 0
phytotoxicity (visual assessment 0-10) ([1]; 25 g ai/ha, 2 weeks): 0
phytotoxicity (visual assessment 0-10) ([1]; 25 g ai/ha, 4 weeks): 0
phytotoxicity (visual assessment 0-10) ([1]; 50 g ai/ha, 2 weeks): 0
phytotoxicity (visual assessment 0-10) ([1]; 50 g ai/ha, 4 weeks): 0
phytotoxicity (visual assessment 0-10) ([1]; 100 g ai/ha, 2 weeks): 0
phytotoxicity (visual assessment 0-10) ([1]; 100 g ai/ha, 4 weeks): 0
phytotoxicity (visual assessment 0-10) ([1]; 200 g ai/ha, 2 weeks): 1
phytotoxicity (visual assessment 0-10) ([1]; 200 g ai/ha, 4 weeks): 0
phytotoxicity (visual assessment 0-10) ([1]; 400 g ai/ha, 2 weeks): 2
phytotoxicity (visual assessment 0-10) ([1]; 400 g ai/ha, 4 weeks): 1
efficacy in actual field condition ([2]; 50 g ai/ha): 100
efficacy in actual field condition ([2]; 100 g ai/ha): 100
efficacy in actual field condition ([2]; 200 g ai/ha): 100
weed controlled in actual field ([2]; Kyllinga brevifolia, 50 g ai/ha or more): 100%
phytotoxicity in actual field condition ([3]; 50 g ai/ha): 0
phytotoxicity in actual field condition ([3]; 100 g ai/ha): 0
efficacy in actual field condition ([4]; 50 g ai/ha): 80
efficacy in actual field condition ([4]; 100 g ai/ha): 90
efficacy in actual field condition ([4]; 200 g ai/ha): 100
weed controlled in actual field ([4]; Digitaria sanguinalis, 50 g ai/ha or more): 80%
phytotoxicity in actual field condition ([5]; 50 g ai/ha): 0
phytotoxicity in actual field condition ([5]; 100 g ai/ha): 0
phytotoxicity to a turf grass ([6]; 100 g ai/ha): no phytotoxicity at all
phytotoxicity to a turf grass ([6]; 400 g ai/ha): only minor phytotoxicity
phytotoxicity to turf grasses ([6]; 400 or 200 g ai/ha): only minor phytotoxicity
safety to turf grasses ([6]; every kind of turf grasses tested, 100 g ai/ha or less): excellent safety
phytotoxicity (visual assessment 0-10) ([7]; 3 g ai/ha, 2 weeks): 0
phytotoxicity (visual assessment 0-10) ([7]; 3 g ai/ha, 4 weeks): 0
phytotoxicity (visual assessment 0-10) ([7]; 6 g ai/ha, 2 weeks): 0
phytotoxicity (visual assessment 0-10) ([7]; 6 g ai/ha, 4 weeks): 0
phytotoxicity (visual assessment 0-10) ([7]; 12 g ai/ha, 2 weeks): 0
phytotoxicity (visual assessment 0-10) ([7]; 12 g ai/ha, 4 weeks): 0
phytotoxicity (visual assessment 0-10) ([7]; 25 g ai/ha, 2 weeks): 0
phytotoxicity (visual assessment 0-10) ([7]; 25 g ai/ha, 4 weeks): 0
phytotoxicity (visual assessment 0-10) ([7]; 50 g ai/ha, 2 weeks): 0
phytotoxicity (visual assessment 0-10) ([7]; 50 g ai/ha, 4 weeks): 0
phytotoxicity (visual assessment 0-10) ([7]; 100 g ai/ha, 2 weeks): 0
phytotoxicity (visual assessment 0-10) ([7]; 100 g ai/ha, 4 weeks): 0
phytotoxicity (visual assessment 0-10) ([7]; 200 g ai/ha, 2 weeks): 0
phytotoxicity (visual assessment 0-10) ([7]; 200 g ai/ha, 4 weeks): 0
phytotoxicity (visual assessment 0-10) ([7]; 400 g ai/ha, 2 weeks): 1
phytotoxicity (visual assessment 0-10) ([7]; 400 g ai/ha, 4 weeks): 0
phytotoxicity (visual assessment 0-10) ([8]; 3 g ai/ha, 2 weeks): 0
phytotoxicity (visual assessment 0-10) ([8]; 3 g ai/ha, 4 weeks): 0
phytotoxicity (visual assessment 0-10) ([8]; 6 g ai/ha, 2 weeks): 0
phytotoxicity (visual assessment 0-10) ([8]; 6 g ai/ha, 4 weeks): 0
phytotoxicity (visual assessment 0-10) ([8]; 12 g ai/ha, 2 weeks): 0
phytotoxicity (visual assessment 0-10) ([8]; 12 g ai/ha, 4 weeks): 0
phytotoxicity (visual assessment 0-10) ([8]; 25 g ai/ha, 2 weeks): 0
phytotoxicity (visual assessment 0-10) ([8]; 25 g ai/ha, 4 weeks): 0
phytotoxicity (visual assessment 0-10) ([8]; 50 g ai/ha, 2 weeks): 0
phytotoxicity (visual assessment 0-10) ([8]; 50 g ai/ha, 4 weeks): 0
phytotoxicity (visual assessment 0-10) ([8]; 100 g ai/ha, 2 weeks): 0
phytotoxicity (visual assessment 0-10) ([8]; 100 g ai/ha, 4 weeks): 0
phytotoxicity (visual assessment 0-10) ([8]; 200 g ai/ha, 2 weeks): 0
phytotoxicity (visual assessment 0-10) ([8]; 200 g ai/ha, 4 weeks): 0
phytotoxicity (visual assessment 0-10) ([8]; 400 g ai/ha, 2 weeks): 0
phytotoxicity (visual assessment 0-10) ([8]; 400 g ai/ha, 4 weeks): 0

CCOC(=O)c1cnn(C)c1S(=O)(=O)NC(=O)Nc1nc(OC)cc(OC)n1 [Control chemical No. 1, Pyrazosulfuron ethyl, reference compound]
phytotoxicity (visual assessment 0-10) ([1]; 3 g ai/ha, 2 weeks): 0
phytotoxicity (visual assessment 0-10) ([1]; 3 g ai/ha, 4 weeks): 0
phytotoxicity (visual assessment 0-10) ([1]; 6 g ai/ha, 2 weeks): 0
phytotoxicity (visual assessment 0-10) ([1]; 6 g ai/ha, 4 weeks): 0
phytotoxicity (visual assessment 0-10) ([1]; 12 g ai/ha, 2 weeks): 0
phytotoxicity (visual assessment 0-10) ([1]; 12 g ai/ha, 4 weeks): 0
phytotoxicity (visual assessment 0-10) ([1]; 25 g ai/ha, 2 weeks): 0
phytotoxicity (visual assessment 0-10) ([1]; 25 g ai/ha, 4 weeks): 0
phytotoxicity (visual assessment 0-10) ([1]; 50 g ai/ha, 2 weeks): 0
phytotoxicity (visual assessment 0-10) ([1]; 50 g ai/ha, 4 weeks): 0
phytotoxicity (visual assessment 0-10) ([1]; 100 g ai/ha, 2 weeks): 0
phytotoxicity (visual assessment 0-10) ([1]; 100 g ai/ha, 4 weeks): 0
phytotoxicity (visual assessment 0-10) ([1]; 200 g ai/ha, 2 weeks): 1
phytotoxicity (visual assessment 0-10) ([1]; 200 g ai/ha, 4 weeks): 0
phytotoxicity (visual assessment 0-10) ([1]; 400 g ai/ha, 2 weeks): 2
phytotoxicity (visual assessment 0-10) ([1]; 400 g ai/ha, 4 weeks): 1
phytotoxicity in actual field condition ([3]; 100 g ai/ha): 0
phytotoxicity in actual field condition ([5]; 100 g ai/ha): 0
phytotoxicity (visual assessment 0-10) ([7]; 3 g ai/ha, 2 weeks): 0
phytotoxicity (visual assessment 0-10) ([7]; 3 g ai/ha, 4 weeks): 0
phytotoxicity (visual assessment 0-10) ([7]; 6 g ai/ha, 2 weeks): 0
phytotoxicity (visual assessment 0-10) ([7]; 6 g ai/ha, 4 weeks): 0
phytotoxicity (visual assessment 0-10) ([7]; 12 g ai/ha, 2 weeks): 0
phytotoxicity (visual assessment 0-10) ([7]; 12 g ai/ha, 4 weeks): 0
phytotoxicity (visual assessment 0-10) ([7]; 25 g ai/ha, 2 weeks): 0
phytotoxicity (visual assessment 0-10) ([7]; 25 g ai/ha, 4 weeks): 0
phytotoxicity (visual assessment 0-10) ([7]; 50 g ai/ha, 2 weeks): 0
phytotoxicity (visual assessment 0-10) ([7]; 50 g ai/ha, 4 weeks): 0
phytotoxicity (visual assessment 0-10) ([7]; 100 g ai/ha, 2 weeks): 0
phytotoxicity (visual assessment 0-10) ([7]; 100 g ai/ha, 4 weeks): 0
phytotoxicity (visual assessment 0-10) ([7]; 200 g ai/ha, 2 weeks): 0
phytotoxicity (visual assessment 0-10) ([7]; 200 g ai/ha, 4 weeks): 0
phytotoxicity (visual assessment 0-10) ([7]; 400 g ai/ha, 2 weeks): 1
phytotoxicity (visual assessment 0-10) ([7]; 400 g ai/ha, 4 weeks): 0
phytotoxicity (visual assessment 0-10) ([8]; 3 g ai/ha, 2 weeks): 0
phytotoxicity (visual assessment 0-10) ([8]; 3 g ai/ha, 4 weeks): 0
phytotoxicity (visual assessment 0-10) ([8]; 6 g ai/ha, 2 weeks): 0
phytotoxicity (visual assessment 0-10) ([8]; 6 g ai/ha, 4 weeks): 0
phytotoxicity (visual assessment 0-10) ([8]; 12 g ai/ha, 2 weeks): 0
phytotoxicity (visual assessment 0-10) ([8]; 12 g ai/ha, 4 weeks): 0
phytotoxicity (visual assessment 0-10) ([8]; 25 g ai/ha, 2 weeks): 0
phytotoxicity (visual assessment 0-10) ([8]; 25 g ai/ha, 4 weeks): 0
phytotoxicity (visual assessment 0-10) ([8]; 50 g ai/ha, 2 weeks): 0
phytotoxicity (visual assessment 0-10) ([8]; 50 g ai/ha, 4 weeks): 0
phytotoxicity (visual assessment 0-10) ([8]; 100 g ai/ha, 2 weeks): 0
phytotoxicity (visual assessment 0-10) ([8]; 100 g ai/ha, 4 weeks): 0
phytotoxicity (visual assessment 0-10) ([8]; 200 g ai/ha, 2 weeks): 0
phytotoxicity (visual assessment 0-10) ([8]; 200 g ai/ha, 4 weeks): 0
phytotoxicity (visual assessment 0-10) ([8]; 400 g ai/ha, 2 weeks): 0
phytotoxicity (visual assessment 0-10) ([8]; 400 g ai/ha, 4 weeks): 0

From patent US20100035755A1, “METHOD OF CONTROLLING WEEDS IN A TURF GRASS BY USING SULFONYLUREA COMPOUNDS” (Moghu Research Center Ltd., priority 2008, published 2010)
